Test results taken from ChEMBL document CHEMBL1201862, “PubChem BioAssay data set” (2004).
The source made the active and inactive calls.

Experiments:
[1] = molecular target: T1, DNA dC->dU-editing enzyme APOBEC-3G (Homo sapiens, UniProt Q9HC16); test: Dose Response confirmation of small molecule APOBEC3G DNA Deaminase Inhibitors via a fluorescence-based single-stranded DNA deaminase assay. [Related pubchem assays (depositor defined):AID493012, AID493028]; format: functional
[2] = molecular target: DNA dC->dU-editing enzyme APOBEC-3A (Homo sapiens, UniProt P31941); test: Dose Response confirmation of small molecule APOBEC3A DNA Deaminase Inhibitors via a fluorescence-based single-stranded DNA deaminase assay. [Related pubchem assays (depositor defined):AID493011, AID493024]; format: functional
Chain of DNA dC->dU-editing enzyme APOBEC-3A (P31941 whole entry): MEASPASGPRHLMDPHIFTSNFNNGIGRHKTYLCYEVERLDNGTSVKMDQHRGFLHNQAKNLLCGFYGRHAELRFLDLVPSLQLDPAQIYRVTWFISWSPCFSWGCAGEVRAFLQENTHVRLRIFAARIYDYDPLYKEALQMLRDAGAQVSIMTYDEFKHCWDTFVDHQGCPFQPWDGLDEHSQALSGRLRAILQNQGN

[3] = molecular target: T1, DNA dC->dU-editing enzyme APOBEC-3G; format: functional
[4] = molecular target: Eukaryotic translation initiation factor 4H (Homo sapiens, UniProt Q15056); test: human eIF4H binding inhibitors, primary screen, translation initiation inhibitor project, biochemical, uHTS, fluorescence polarization (AID 2012)
[5] = molecular target: Polyadenylate-binding protein 1 (Homo sapiens, UniProt P11940); test: PABP poly(A) RNA binding inhibitors, primary screen, biochemical, fluorescence polarization, uHTS (AID 2014)
Chain of Polyadenylate-binding protein 1 (P11940 whole entry): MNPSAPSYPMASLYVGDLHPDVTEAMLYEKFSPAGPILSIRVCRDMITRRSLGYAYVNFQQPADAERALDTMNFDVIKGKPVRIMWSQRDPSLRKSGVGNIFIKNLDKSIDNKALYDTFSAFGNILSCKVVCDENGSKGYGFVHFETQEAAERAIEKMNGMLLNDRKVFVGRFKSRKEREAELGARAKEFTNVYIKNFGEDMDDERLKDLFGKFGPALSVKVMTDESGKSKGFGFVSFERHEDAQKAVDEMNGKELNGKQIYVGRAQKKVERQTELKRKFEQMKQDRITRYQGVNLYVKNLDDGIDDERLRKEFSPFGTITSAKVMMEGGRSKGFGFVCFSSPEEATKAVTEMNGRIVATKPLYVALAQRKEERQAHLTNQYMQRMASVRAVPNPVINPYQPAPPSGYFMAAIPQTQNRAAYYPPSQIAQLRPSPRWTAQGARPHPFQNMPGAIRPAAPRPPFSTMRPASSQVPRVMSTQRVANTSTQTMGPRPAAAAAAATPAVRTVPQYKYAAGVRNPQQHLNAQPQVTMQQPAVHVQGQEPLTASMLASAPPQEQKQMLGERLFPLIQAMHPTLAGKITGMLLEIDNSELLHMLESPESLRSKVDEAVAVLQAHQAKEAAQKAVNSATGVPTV

[6] = molecular target: G-protein coupled receptor 55 (Homo sapiens, UniProt Q9Y2T6); test: GPR55 agonists via beta-arrestin recruitment, primary screen, imaging, U2OS cells, beta-arrestin-GFP redistribution (AID 1961); format: functional
Chain of G-protein coupled receptor 55 (Q9Y2T6 whole entry): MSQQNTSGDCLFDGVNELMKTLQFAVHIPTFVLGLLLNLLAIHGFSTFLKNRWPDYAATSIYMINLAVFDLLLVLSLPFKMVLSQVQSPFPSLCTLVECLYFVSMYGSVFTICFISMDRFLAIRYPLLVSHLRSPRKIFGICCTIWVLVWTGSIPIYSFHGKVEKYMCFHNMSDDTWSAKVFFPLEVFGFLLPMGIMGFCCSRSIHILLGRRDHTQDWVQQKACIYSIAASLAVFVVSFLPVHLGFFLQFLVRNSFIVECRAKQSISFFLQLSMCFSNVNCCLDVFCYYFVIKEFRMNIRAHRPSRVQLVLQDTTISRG

[7] = molecular target: Glucose-6-phosphate 1-dehydrogenase (Homo sapiens, UniProt P11413); test: human G6PD enzyme inhibitors, dose response, selectivity assay for P. falciparum G6PD inhibitor project, biochemical, fluorescence (AID 504792); format: functional
Chain of Glucose-6-phosphate 1-dehydrogenase (P11413 whole entry): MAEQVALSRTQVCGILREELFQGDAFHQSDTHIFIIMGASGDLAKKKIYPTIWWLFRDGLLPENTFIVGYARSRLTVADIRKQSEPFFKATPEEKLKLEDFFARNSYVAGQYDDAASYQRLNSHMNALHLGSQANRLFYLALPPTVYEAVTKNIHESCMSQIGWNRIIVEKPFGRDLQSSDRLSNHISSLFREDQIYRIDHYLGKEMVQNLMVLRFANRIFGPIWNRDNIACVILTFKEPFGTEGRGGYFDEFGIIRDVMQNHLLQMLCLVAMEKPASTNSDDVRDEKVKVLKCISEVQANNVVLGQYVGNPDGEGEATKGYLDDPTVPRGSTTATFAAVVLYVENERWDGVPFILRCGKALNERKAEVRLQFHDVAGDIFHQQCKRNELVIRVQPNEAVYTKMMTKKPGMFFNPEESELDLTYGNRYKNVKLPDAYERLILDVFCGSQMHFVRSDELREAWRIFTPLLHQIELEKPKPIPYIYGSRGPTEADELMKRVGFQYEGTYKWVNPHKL

[8] = molecular target: T2, Short transient receptor potential channel 4 (Mus musculus, UniProt Q9QUQ5); test: mouse TRPC4 channel activators, dose response, cell-based, HEK293 TRPC4/mu-opioid, Fluo-4 calcium (AID 434937); format: functional
T2 sequence (Q9QUQ5 whole entry): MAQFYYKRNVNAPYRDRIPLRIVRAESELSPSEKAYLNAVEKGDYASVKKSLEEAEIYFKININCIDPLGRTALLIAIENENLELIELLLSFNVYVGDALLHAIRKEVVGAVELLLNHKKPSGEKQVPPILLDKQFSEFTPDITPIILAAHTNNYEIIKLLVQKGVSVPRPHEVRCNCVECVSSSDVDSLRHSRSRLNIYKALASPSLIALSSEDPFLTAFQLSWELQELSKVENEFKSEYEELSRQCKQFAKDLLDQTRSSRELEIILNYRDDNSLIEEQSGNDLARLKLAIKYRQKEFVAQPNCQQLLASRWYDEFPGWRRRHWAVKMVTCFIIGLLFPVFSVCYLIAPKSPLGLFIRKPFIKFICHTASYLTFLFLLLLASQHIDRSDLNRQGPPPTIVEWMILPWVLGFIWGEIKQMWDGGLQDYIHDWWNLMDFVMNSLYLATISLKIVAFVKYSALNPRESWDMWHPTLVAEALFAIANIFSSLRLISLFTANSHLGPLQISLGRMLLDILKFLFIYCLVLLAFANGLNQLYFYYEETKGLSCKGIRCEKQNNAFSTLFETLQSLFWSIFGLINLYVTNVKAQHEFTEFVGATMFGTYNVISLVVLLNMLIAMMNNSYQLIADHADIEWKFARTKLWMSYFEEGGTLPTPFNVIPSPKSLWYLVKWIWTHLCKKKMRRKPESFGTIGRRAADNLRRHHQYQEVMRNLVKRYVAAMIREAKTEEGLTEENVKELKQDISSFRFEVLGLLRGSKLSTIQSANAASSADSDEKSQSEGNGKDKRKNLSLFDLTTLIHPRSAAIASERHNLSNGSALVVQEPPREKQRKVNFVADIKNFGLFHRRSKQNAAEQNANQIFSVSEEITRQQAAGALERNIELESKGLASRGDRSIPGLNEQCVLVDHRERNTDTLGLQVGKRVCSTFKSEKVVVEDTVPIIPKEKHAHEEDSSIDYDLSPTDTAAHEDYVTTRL

[9] = molecular target: T3, Aminopeptidase N (Plasmodium falciparum FcB1/Columbia, UniProt O96935); test: P. falciparum M1AAP inhibitors, biochemical, fluorogenic H-Leu-NHMec substrate, 1536-well (AID 1445); design: species or system Plasmodium falciparum 3D7, 3D7
T3 sequence (O96935 whole entry): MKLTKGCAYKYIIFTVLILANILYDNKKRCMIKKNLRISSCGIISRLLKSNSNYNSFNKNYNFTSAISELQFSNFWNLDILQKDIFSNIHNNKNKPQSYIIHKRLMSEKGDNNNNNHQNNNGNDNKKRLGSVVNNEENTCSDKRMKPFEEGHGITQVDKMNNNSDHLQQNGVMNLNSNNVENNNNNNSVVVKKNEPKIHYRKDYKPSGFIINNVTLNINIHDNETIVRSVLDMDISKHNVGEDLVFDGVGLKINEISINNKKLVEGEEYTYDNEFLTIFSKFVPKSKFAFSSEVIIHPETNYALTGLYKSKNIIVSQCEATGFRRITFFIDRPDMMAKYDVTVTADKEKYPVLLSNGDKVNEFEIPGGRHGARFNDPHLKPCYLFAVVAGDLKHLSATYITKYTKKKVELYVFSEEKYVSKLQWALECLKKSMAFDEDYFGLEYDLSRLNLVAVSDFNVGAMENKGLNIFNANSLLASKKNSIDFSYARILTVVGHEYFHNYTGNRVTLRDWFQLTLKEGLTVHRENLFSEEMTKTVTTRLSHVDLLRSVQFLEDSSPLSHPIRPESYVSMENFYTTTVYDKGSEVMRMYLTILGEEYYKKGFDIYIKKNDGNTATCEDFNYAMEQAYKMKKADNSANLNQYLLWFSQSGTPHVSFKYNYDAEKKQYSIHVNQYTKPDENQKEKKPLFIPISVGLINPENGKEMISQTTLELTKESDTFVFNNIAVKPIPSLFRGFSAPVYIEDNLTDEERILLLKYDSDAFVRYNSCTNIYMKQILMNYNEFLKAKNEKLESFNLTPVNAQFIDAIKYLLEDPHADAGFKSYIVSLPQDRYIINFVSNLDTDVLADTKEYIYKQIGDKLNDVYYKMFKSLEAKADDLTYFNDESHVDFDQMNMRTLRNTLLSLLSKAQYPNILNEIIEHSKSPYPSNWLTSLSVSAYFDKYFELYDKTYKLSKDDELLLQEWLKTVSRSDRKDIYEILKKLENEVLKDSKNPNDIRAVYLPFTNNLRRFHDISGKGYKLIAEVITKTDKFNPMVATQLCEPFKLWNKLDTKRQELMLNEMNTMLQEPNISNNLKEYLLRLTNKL

[10] = molecular target: Large T antigen (Simian virus 40, UniProt P03070); format: functional, Betapolyomavirus macacae;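 note: Confirmatory-stage PubChem screen for compounds that inhibit SV40 T antigen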
Chain of Large T antigen (P03070 whole entry): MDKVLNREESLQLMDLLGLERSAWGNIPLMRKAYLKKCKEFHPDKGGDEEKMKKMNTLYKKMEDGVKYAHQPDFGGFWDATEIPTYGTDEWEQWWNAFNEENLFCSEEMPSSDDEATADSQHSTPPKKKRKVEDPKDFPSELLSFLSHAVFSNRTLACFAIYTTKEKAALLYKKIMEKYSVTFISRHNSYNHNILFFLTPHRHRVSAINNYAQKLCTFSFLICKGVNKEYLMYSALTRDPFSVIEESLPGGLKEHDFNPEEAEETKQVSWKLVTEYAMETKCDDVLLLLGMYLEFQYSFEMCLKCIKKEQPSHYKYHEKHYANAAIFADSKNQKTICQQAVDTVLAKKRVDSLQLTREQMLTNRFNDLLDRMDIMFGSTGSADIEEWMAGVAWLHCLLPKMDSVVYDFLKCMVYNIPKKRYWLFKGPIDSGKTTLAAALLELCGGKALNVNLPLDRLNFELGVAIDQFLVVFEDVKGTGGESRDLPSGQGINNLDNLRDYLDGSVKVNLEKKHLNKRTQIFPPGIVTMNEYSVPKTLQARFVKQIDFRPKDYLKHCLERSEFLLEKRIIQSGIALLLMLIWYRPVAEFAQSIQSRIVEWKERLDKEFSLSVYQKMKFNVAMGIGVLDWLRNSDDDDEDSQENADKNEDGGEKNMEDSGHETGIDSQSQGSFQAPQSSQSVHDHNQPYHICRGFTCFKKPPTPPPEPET

[11] = molecular target: T4, Replicative DNA helicase DnaB (Mycobacterium tuberculosis, UniProt P9WMR3); test: DnaB intein splicing inhibitors, dose response, biochemical, cell-free fluorescence (AID 449749); format: functional
T4 sequence (P9WMR3 whole entry): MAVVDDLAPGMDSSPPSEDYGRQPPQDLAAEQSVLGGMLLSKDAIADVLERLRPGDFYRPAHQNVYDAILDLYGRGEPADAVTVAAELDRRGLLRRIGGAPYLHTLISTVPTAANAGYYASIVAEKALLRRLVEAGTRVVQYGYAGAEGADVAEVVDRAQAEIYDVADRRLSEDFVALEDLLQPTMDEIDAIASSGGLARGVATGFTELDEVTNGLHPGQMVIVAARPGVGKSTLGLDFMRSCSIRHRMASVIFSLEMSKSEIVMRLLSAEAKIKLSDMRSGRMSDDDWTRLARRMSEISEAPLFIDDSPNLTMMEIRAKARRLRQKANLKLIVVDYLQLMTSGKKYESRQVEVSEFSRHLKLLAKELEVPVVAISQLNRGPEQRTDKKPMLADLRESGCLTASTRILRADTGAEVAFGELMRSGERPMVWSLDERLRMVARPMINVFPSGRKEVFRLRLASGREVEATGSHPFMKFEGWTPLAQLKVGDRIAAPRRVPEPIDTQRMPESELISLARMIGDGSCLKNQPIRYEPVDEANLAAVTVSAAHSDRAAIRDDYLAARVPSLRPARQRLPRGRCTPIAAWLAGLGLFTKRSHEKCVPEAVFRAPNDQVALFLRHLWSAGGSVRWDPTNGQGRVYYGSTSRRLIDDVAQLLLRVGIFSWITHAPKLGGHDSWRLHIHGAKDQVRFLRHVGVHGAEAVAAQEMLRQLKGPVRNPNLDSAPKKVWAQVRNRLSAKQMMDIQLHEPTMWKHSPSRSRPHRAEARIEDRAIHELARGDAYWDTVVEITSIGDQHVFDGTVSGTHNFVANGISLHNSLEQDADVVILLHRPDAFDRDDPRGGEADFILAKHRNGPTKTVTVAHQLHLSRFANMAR

[12] = molecular target: T5, Protein RecA (Mycobacterium tuberculosis, UniProt P9WHJ3); test: Fluorescence Cell-Free Homogeneous Dose Retest to Identify Inhibitors of RecA-Intein Splicing Activity. [Related pubchem assays (depositor defined):AID2097, AID2223, AID489010, AID492950]; format: functional
T5 sequence (P9WHJ3 whole entry): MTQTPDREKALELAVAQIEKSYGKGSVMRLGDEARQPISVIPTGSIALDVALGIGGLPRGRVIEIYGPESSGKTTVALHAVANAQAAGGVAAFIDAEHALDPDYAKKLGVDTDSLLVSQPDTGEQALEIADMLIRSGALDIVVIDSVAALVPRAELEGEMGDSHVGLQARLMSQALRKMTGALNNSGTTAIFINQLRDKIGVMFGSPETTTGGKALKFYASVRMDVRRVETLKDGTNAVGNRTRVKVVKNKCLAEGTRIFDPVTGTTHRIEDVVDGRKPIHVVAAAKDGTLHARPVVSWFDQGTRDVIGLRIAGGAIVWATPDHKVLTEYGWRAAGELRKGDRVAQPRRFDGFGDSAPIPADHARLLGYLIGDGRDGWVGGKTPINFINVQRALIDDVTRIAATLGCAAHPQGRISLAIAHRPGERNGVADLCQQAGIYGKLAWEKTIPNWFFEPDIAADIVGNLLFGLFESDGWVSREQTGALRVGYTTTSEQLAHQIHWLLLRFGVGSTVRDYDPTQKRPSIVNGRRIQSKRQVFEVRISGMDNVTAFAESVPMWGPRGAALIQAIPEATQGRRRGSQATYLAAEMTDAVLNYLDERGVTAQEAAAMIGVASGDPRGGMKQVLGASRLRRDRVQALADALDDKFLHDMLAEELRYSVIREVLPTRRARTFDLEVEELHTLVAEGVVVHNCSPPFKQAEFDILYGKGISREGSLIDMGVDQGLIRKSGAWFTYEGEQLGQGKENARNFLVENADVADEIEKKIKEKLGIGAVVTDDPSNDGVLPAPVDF

[13] = molecular target: Luciferin 4-monooxygenase (Photinus pyralis, UniProt P08659); test: Counter Screen for Luciferase-based Assay Positives. [Related pubchem assays: 620, 618, 411 ]
Chain of Luciferin 4-monooxygenase (P08659 whole entry): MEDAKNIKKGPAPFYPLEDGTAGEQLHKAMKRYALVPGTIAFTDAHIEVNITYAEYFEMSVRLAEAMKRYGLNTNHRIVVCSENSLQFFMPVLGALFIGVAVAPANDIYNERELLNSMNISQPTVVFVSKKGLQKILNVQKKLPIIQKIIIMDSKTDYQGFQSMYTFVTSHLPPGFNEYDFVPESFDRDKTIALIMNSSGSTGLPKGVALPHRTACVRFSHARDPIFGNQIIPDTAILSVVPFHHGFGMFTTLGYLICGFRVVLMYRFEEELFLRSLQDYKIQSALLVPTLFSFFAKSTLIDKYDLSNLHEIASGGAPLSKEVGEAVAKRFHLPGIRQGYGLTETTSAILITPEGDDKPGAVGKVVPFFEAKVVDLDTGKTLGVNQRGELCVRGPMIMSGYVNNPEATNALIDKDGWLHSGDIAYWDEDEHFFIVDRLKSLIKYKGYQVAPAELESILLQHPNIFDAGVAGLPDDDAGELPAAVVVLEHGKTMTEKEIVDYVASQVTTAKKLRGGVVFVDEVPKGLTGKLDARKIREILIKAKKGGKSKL

[14] = test system: HT-1080; test: cytotoxicity in HT1080 fibrosarcoma cells, cell-based, fluorescence readout (AID 620); format: functional; settings: Homo sapiens
[15] = molecular target: FAD-linked sulfhydryl oxidase ALR (Homo sapiens, UniProt P55789); test: inhibitors of human ALR sulfhydryl oxidase, dose response, biochemical, H2O2 detection, luminescence, cherry-pick (AID 493248)
Chain of FAD-linked sulfhydryl oxidase ALR (P55789 whole entry): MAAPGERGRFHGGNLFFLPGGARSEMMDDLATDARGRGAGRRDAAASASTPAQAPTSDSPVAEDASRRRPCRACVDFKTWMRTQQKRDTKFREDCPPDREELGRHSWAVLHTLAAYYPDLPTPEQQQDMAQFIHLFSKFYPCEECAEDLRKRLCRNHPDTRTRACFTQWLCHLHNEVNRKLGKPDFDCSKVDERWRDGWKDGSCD

[16] = HEp-2 cell cytotoxicity, dose response, cytotoxicity control for RSV inhibitor project, HTS (AID 2410); format: functional; settings: human respiratory syncytial virus

T1 sequence (Q9HC16 whole entry): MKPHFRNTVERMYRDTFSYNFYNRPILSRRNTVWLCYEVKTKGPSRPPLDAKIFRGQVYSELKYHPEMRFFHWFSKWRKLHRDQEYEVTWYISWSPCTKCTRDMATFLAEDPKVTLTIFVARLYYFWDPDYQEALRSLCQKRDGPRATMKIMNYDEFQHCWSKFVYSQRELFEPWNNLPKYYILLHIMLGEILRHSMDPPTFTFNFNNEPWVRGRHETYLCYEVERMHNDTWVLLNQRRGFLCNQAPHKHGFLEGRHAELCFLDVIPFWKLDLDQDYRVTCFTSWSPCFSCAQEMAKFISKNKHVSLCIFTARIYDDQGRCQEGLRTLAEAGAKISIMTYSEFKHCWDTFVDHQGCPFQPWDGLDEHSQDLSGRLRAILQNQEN

CCOCCCn1c(S)nnc1-c1ccc(Cl)cc1
IC50 [1]: 13.8 µM (active)

C[N+]1(C)C2CCC1CC(OC(=O)c1ccccc1)C2 (stereo unspecified)
IC50 [2]: 2.96 µM (active) | IC50 [3]: 1.75 µM (active)

CCOc1ccccc1/N=C1/SCCCN1C
IC50 [4]: > 100 µM (inactive) | IC50 [5]: 4.4 µM (active)

COc1ccc(C(=O)NC(=S)NCc2ccc(-c3nc4ccccc4o3)cc2)cc1OC
EC50 [6]: > 32 µM (inactive)

CN(C)c1cccc2c1c(NC(=O)c1ccc(F)cc1)nn2C
IC50 [7]: > 80 µM (inactive)

CCN1C(NCCOC)=N[C@@H](CCc2ccccc2)[C@H](C(=O)OC)[C@H]1C
IC50 [4]: > 100 µM (inactive) | IC50 [5]: 8.16 µM (active) | IC50 [2]: 3.39 µM (active) | IC50 [3]: 4.15 µM (active)

COC(=O)C1=C(C)N(Cc2ccccc2)C(NCCCOC(C)C)=N[C@H]1c1ccccc1
IC50 [2]: 3.37 µM (active) | IC50 [3]: 5.12 µM (active)

CCn1c(N2CCN(S(=O)(=O)CC)CC2)nc2ccccc21
EC50 [8]: 2.66 µM (active)

Cc1nnc(SCC(=O)c2cc(C)n(-c3ccc4c(c3)OCO4)c2C)s1
IC50 [7]: > 80 µM (inactive)

Cc1cc(=O)n2nc(-c3ccccc3)sc2c1C#N
IC50 [1]: 39.2 µM (active)

CCN1C(=NCC(C)C)N[C@@H](c2cccc(F)c2)C(C(=O)OC)=C1C
IC50 [4]: > 100 µM (inactive) | IC50 [5]: 5.33 µM (active)

O=C(NCc1ccccc1)C1CCN(S(=O)(=O)c2cccc3cccnc23)CC1
IC50 [9]: 42.1 µM (active)

CC1(C)Nc2ccc(O)cc2-c2c1ssc2=S
IC50 [10]: > 100 µM (active) | IC50 [7]: > 80 µM (inactive) | AC50 [11]: 9 µM (active) | EC50 [12]: 0.998 µM (active)

CCn1c(SCC(=O)Nc2ccccc2C)nnc1-c1ccccc1O
EC50 [13]: > 100 µM (not active) | EC50 [14]: > 50 µM (not active)

O=C(NCCNC1CCC(c2ccccc2)CC1)c1cccs1 (stereo unspecified)
EC50 [8]: 0.335 µM (active)

O=S(=O)(Nc1ccc(O)c(NS(=O)(=O)c2ccccc2)c1)c1ccccc1
IC50 [1]: 55.1 µM (active) | AC50 [15]: 1.23 µM (active)

CC(CCc1ccccc1)NC(=O)C(Cc1ccccc1)NS(=O)(=O)c1cccs1 (stereo unspecified)
IC50 [9]: 71.4 µM (active)

CCOc1cc(C2Nc3cccc4cccc(c34)N2)ccc1O
CC50 [16]: 20.2 µM (active) | EC50 [6]: 8.01 µM (active)
